Patent US11083725B2 (priority 2014, dated 2021)

Test system: NHBE cells
Test: Biolog metabolic array: substrate use by NHBE cells with or without CA09 infection
Type: cell-based, human
Conditions: for Substrate use, 590 nm absorbance normalized to zero hour, 0 hr: Biolog PMM2, 0 hr; for Substrate use, 590 nm absorbance normalized to zero hour, 1 hr: Biolog PMM2, 1 hr; for Substrate use, 590 nm absorbance normalized to zero hour, 5 hr: Biolog PMM2, 5 hr; for Substrate use, 590 nm absorbance normalized to zero hour, 7 hr: Biolog PMM2, 7 hr
[1] = Control (uninfected) NHBE cells
[2] = Virus (CA09-infected, MOI 1) NHBE cells
[3] = Virus: CA09-infected NHBE cells, MOI 1, Biolog PMM2
[4] = Virus (CA09-infected NHBE cells, MOI 1)

CC[C@H](O)C(=O)O (racemic) [D,L-a-Hydroxy-Butyric Acid]
590 nm absorbance normalized to zero hour (substrate use), 0 hr [1]: 1.00 | 590 nm absorbance normalized to zero hour (substrate use), 1 hr [1]: 0.92 | 590 nm absorbance normalized to zero hour (substrate use), 2 hr [1]: 1.05 | 590 nm absorbance normalized to zero hour (substrate use), 3 hr [1]: 0.99 | 590 nm absorbance normalized to zero hour (substrate use), 4 hr [1]: 1.01 | 590 nm absorbance normalized to zero hour (substrate use), 6 hr [1]: 0.56 | 590 nm absorbance normalized to zero hour (substrate use), 8 hr [1]: 0.72 | 590 nm absorbance normalized to zero hour (substrate use), 9 hr [1]: 1.79 | 590 nm absorbance normalized to zero hour (substrate use), 10 hr [1]: 0.74 | 590 nm absorbance normalized to zero hour (substrate use), 11 hr [1]: 2.19 | Substrate use, 590 nm absorbance normalized to zero hour, 0 hr [1]: 1.00 | Substrate use, 590 nm absorbance normalized to zero hour, 1 hr [1]: 0.92 | Substrate use, 590 nm absorbance normalized to zero hour, 5 hr [1]: 1.18 | Substrate use, 590 nm absorbance normalized to zero hour, 7 hr [1]: 1.41 | 590 nm absorbance normalized to zero hour (substrate use), 0 hr [2]: 1.00 | 590 nm absorbance normalized to zero hour (substrate use), 1 hr [2]: 1.29 | 590 nm absorbance normalized to zero hour (substrate use), 2 hr [2]: 1.58 | 590 nm absorbance normalized to zero hour (substrate use), 3 hr [2]: 1.74 | 590 nm absorbance normalized to zero hour (substrate use), 4 hr [2]: 1.84 | 590 nm absorbance normalized to zero hour (substrate use), 5 hr [2]: 2.00 | 590 nm absorbance normalized to zero hour (substrate use), 6 hr [2]: 2.10 | 590 nm absorbance normalized to zero hour (substrate use), 7 hr [2]: 2.18 | 590 nm absorbance normalized to zero hour (substrate use), 8 hr [2]: 2.26 | 590 nm absorbance normalized to zero hour (substrate use), 9 hr [2]: 2.35 | 590 nm absorbance normalized to zero hour (substrate use), 10 hr [2]: 2.39 | 590 nm absorbance normalized to zero hour (substrate use), 11 hr [2]: 2.21 | 590 nm absorbance normalized to zero hour (substrate use), 0 hr [3]: 1.00 | 590 nm absorbance normalized to zero hour (substrate use), 1 hr [3]: 1.29 | 590 nm absorbance normalized to zero hour (substrate use), 2 hr [3]: 1.58 | 590 nm absorbance normalized to zero hour (substrate use), 3 hr [3]: 1.74 | 590 nm absorbance normalized to zero hour (substrate use), 4 hr [3]: 1.84 | 590 nm absorbance normalized to zero hour (substrate use), 5 hr [3]: 2.00 | 590 nm absorbance normalized to zero hour (substrate use), 6 hr [3]: 2.10 | 590 nm absorbance normalized to zero hour (substrate use), 7 hr [3]: 2.18 | 590 nm absorbance normalized to zero hour (substrate use), 8 hr [3]: 2.26 | 590 nm absorbance normalized to zero hour (substrate use), 9 hr [3]: 2.35 | 590 nm absorbance normalized to zero hour (substrate use), 10 hr [3]: 2.39 | 590 nm absorbance normalized to zero hour (substrate use), 11 hr [3]: 2.21

CC(O)CO (stereo not drawn) [1,2-Propanediol]
590 nm absorbance normalized to zero hour (substrate use), 0 hr [1]: 1.00 | 590 nm absorbance normalized to zero hour (substrate use), 1 hr [1]: 1.28 | 590 nm absorbance normalized to zero hour (substrate use), 2 hr [1]: 1.41 | 590 nm absorbance normalized to zero hour (substrate use), 3 hr [1]: 1.17 | 590 nm absorbance normalized to zero hour (substrate use), 4 hr [1]: 1.19 | 590 nm absorbance normalized to zero hour (substrate use), 6 hr [1]: 0.68 | 590 nm absorbance normalized to zero hour (substrate use), 8 hr [1]: 1.12 | 590 nm absorbance normalized to zero hour (substrate use), 9 hr [1]: 1.22 | 590 nm absorbance normalized to zero hour (substrate use), 10 hr [1]: 1.15 | 590 nm absorbance normalized to zero hour (substrate use), 11 hr [1]: 1.18 | Substrate use, 590 nm absorbance normalized to zero hour, 0 hr [1]: 1.00 | Substrate use, 590 nm absorbance normalized to zero hour, 1 hr [1]: 1.28 | Substrate use, 590 nm absorbance normalized to zero hour, 5 hr [1]: 1.27 | Substrate use, 590 nm absorbance normalized to zero hour, 7 hr [1]: 1.17 | 590 nm absorbance normalized to zero hour (substrate use), 0 hr [2]: 1.00 | 590 nm absorbance normalized to zero hour (substrate use), 1 hr [2]: 1.95 | 590 nm absorbance normalized to zero hour (substrate use), 2 hr [2]: 2.44 | 590 nm absorbance normalized to zero hour (substrate use), 3 hr [2]: 2.83 | 590 nm absorbance normalized to zero hour (substrate use), 4 hr [2]: 2.94 | 590 nm absorbance normalized to zero hour (substrate use), 5 hr [2]: 3.29 | 590 nm absorbance normalized to zero hour (substrate use), 6 hr [2]: 3.55 | 590 nm absorbance normalized to zero hour (substrate use), 7 hr [2]: 3.75 | 590 nm absorbance normalized to zero hour (substrate use), 8 hr [2]: 3.87 | 590 nm absorbance normalized to zero hour (substrate use), 9 hr [2]: 4.24 | 590 nm absorbance normalized to zero hour (substrate use), 10 hr [2]: 4.34 | 590 nm absorbance normalized to zero hour (substrate use), 11 hr [2]: 4.75 | 590 nm absorbance normalized to zero hour (substrate use), 0 hr [3]: 1.00 | 590 nm absorbance normalized to zero hour (substrate use), 1 hr [3]: 1.95 | 590 nm absorbance normalized to zero hour (substrate use), 2 hr [3]: 2.44 | 590 nm absorbance normalized to zero hour (substrate use), 3 hr [3]: 2.83 | 590 nm absorbance normalized to zero hour (substrate use), 4 hr [3]: 2.94 | 590 nm absorbance normalized to zero hour (substrate use), 5 hr [3]: 3.29 | 590 nm absorbance normalized to zero hour (substrate use), 6 hr [3]: 3.55 | 590 nm absorbance normalized to zero hour (substrate use), 7 hr [3]: 3.75 | 590 nm absorbance normalized to zero hour (substrate use), 8 hr [3]: 3.87 | 590 nm absorbance normalized to zero hour (substrate use), 9 hr [3]: 4.24 | 590 nm absorbance normalized to zero hour (substrate use), 10 hr [3]: 4.34 | 590 nm absorbance normalized to zero hour (substrate use), 11 hr [3]: 4.75

CC(O)C(C)O (stereo not drawn) [2,3-Butanediol]
590 nm absorbance normalized to zero hour (substrate use), 1 hr [1]: 1.23 | 590 nm absorbance normalized to zero hour (substrate use), 2 hr [1]: 1.54 | 590 nm absorbance normalized to zero hour (substrate use), 3 hr [1]: 1.61 | 590 nm absorbance normalized to zero hour (substrate use), 4 hr [1]: 1.58 | 590 nm absorbance normalized to zero hour (substrate use), 6 hr [1]: 0.83 | 590 nm absorbance normalized to zero hour (substrate use), 8 hr [1]: 1.93 | 590 nm absorbance normalized to zero hour (substrate use), 9 hr [1]: 2.09 | 590 nm absorbance normalized to zero hour (substrate use), 10 hr [1]: 2.19 | 590 nm absorbance normalized to zero hour (substrate use), 11 hr [1]: 2.33 | Substrate use, 590 nm absorbance normalized to zero hour, 1 hr [1]: 1.23 | Substrate use, 590 nm absorbance normalized to zero hour, 5 hr [1]: 1.83 | Substrate use, 590 nm absorbance normalized to zero hour, 7 hr [1]: 1.84 | 590 nm absorbance normalized to zero hour (substrate use), 1 hr [4]: 1.66 | 590 nm absorbance normalized to zero hour (substrate use), 2 hr [4]: 1.65 | 590 nm absorbance normalized to zero hour (substrate use), 3 hr [4]: 0.31 | 590 nm absorbance normalized to zero hour (substrate use), 4 hr [4]: 0.33 | 590 nm absorbance normalized to zero hour (substrate use), 5 hr [4]: 0.38 | 590 nm absorbance normalized to zero hour (substrate use), 6 hr [4]: 0.40 | 590 nm absorbance normalized to zero hour (substrate use), 7 hr [4]: 0.42 | 590 nm absorbance normalized to zero hour (substrate use), 8 hr [4]: 0.43 | 590 nm absorbance normalized to zero hour (substrate use), 9 hr [4]: 0.45 | 590 nm absorbance normalized to zero hour (substrate use), 10 hr [4]: 0.42 | 590 nm absorbance normalized to zero hour (substrate use), 11 hr [4]: 0.39 | 590 nm absorbance normalized to zero hour (substrate use), 1 hr [3]: 1.66 | 590 nm absorbance normalized to zero hour (substrate use), 2 hr [3]: 1.65 | 590 nm absorbance normalized to zero hour (substrate use), 3 hr [3]: 0.31 | 590 nm absorbance normalized to zero hour (substrate use), 4 hr [3]: 0.33 | 590 nm absorbance normalized to zero hour (substrate use), 5 hr [3]: 0.38 | 590 nm absorbance normalized to zero hour (substrate use), 6 hr [3]: 0.40 | 590 nm absorbance normalized to zero hour (substrate use), 7 hr [3]: 0.42 | 590 nm absorbance normalized to zero hour (substrate use), 8 hr [3]: 0.43 | 590 nm absorbance normalized to zero hour (substrate use), 9 hr [3]: 0.45 | 590 nm absorbance normalized to zero hour (substrate use), 10 hr [3]: 0.42 | 590 nm absorbance normalized to zero hour (substrate use), 11 hr [3]: 0.39

NCCO [2-Aminoethanol]
590 nm absorbance normalized to zero hour (substrate use), 0 hr [1]: 1.00 | 590 nm absorbance normalized to zero hour (substrate use), 1 hr [1]: 1.30 | 590 nm absorbance normalized to zero hour (substrate use), 3 hr [1]: 1.12 | 590 nm absorbance normalized to zero hour (substrate use), 4 hr [1]: 1.15 | 590 nm absorbance normalized to zero hour (substrate use), 6 hr [1]: 0.46 | 590 nm absorbance normalized to zero hour (substrate use), 8 hr [1]: 1.06 | 590 nm absorbance normalized to zero hour (substrate use), 9 hr [1]: 1.03 | 590 nm absorbance normalized to zero hour (substrate use), 10 hr [1]: 1.05 | 590 nm absorbance normalized to zero hour (substrate use), 11 hr [1]: 1.07 | Substrate use, 590 nm absorbance normalized to zero hour, 0 hr [1]: 1.00 | Substrate use, 590 nm absorbance normalized to zero hour, 1 hr [1]: 1.30 | Substrate use, 590 nm absorbance normalized to zero hour, 5 hr [1]: 1.24 | Substrate use, 590 nm absorbance normalized to zero hour, 7 hr [1]: 1.07 | 590 nm absorbance normalized to zero hour (substrate use), 0 hr [2]: 1.00 | 590 nm absorbance normalized to zero hour (substrate use), 1 hr [2]: 1.65 | 590 nm absorbance normalized to zero hour (substrate use), 2 hr [2]: 2.01 | 590 nm absorbance normalized to zero hour (substrate use), 3 hr [2]: 2.38 | 590 nm absorbance normalized to zero hour (substrate use), 4 hr [2]: 2.50 | 590 nm absorbance normalized to zero hour (substrate use), 5 hr [2]: 2.74 | 590 nm absorbance normalized to zero hour (substrate use), 6 hr [2]: 2.88 | 590 nm absorbance normalized to zero hour (substrate use), 7 hr [2]: 3.01 | 590 nm absorbance normalized to zero hour (substrate use), 8 hr [2]: 3.12 | 590 nm absorbance normalized to zero hour (substrate use), 9 hr [2]: 3.41 | 590 nm absorbance normalized to zero hour (substrate use), 10 hr [2]: 3.22 | 590 nm absorbance normalized to zero hour (substrate use), 11 hr [2]: 3.78 | 590 nm absorbance normalized to zero hour (substrate use), 0 hr [3]: 1.00 | 590 nm absorbance normalized to zero hour (substrate use), 1 hr [3]: 1.65 | 590 nm absorbance normalized to zero hour (substrate use), 2 hr [3]: 2.01 | 590 nm absorbance normalized to zero hour (substrate use), 3 hr [3]: 2.38 | 590 nm absorbance normalized to zero hour (substrate use), 4 hr [3]: 2.50 | 590 nm absorbance normalized to zero hour (substrate use), 5 hr [3]: 2.74 | 590 nm absorbance normalized to zero hour (substrate use), 6 hr [3]: 2.88 | 590 nm absorbance normalized to zero hour (substrate use), 7 hr [3]: 3.01 | 590 nm absorbance normalized to zero hour (substrate use), 8 hr [3]: 3.12 | 590 nm absorbance normalized to zero hour (substrate use), 9 hr [3]: 3.41 | 590 nm absorbance normalized to zero hour (substrate use), 10 hr [3]: 3.22 | 590 nm absorbance normalized to zero hour (substrate use), 11 hr [3]: 3.78
